Results from US20110280940A1, “Di-Vanilloyl And Tri-Vanilloyl Derivatives For Use In Anti-Cancer Therapy” (priority 2008, published 2011).

What was measured:
[1] = tested on: WI38 normal fibroblasts; assay: Cellular imaging (quantitative videomicroscopy), global growth ratio, WI38; type: cell-based, human; conditions: 50 μM, 72 h
Description: (§1) As the MTT test is based on the mitochondria functions, we also investigated the effects of the di- and tri-vanilloyl derivatives according to the invention on cell proliferation, migration and morphology by means of a cellular imaging approach (Debeir et al., Cytometry 60:29-40, 2004; Debeir et al., IEEE Trans Med Imaging 24:697-711, 2005) either in the human U373-MG glioma cell line, which is apoptosis-resistant but autophagy-sensitive (Lefranc F et al., Neurosurgery 2008) and in the human A549 non-small-cell-lung cancer cell line, which is apoptosis-resistant and autophagy-resistant (Mijatovic T et al., Neoplasia 2006, May; 8(5):402-12).
(§2) Investigations have also been performed in human normal fibroblasts (WS1 and WI38—see Tables 4 and 5). Cellular imaging relied on the use of computer-assisted phase-contrast microscopy making possible to film the behaviour of living cells in culture dishes for several days. […]
(§3) The behaviour of the cells, in terms of morphology, growth and death were thus investigated. The effect on the overall growth was measured by counting the number of cells on the first (0 h) and the last image (72 h) of each film. […] The ratio GGRtreated cells/GGRcontrol cells, was further calculated thereby obtaining a value that describes the effect of compounds of the present invention on the overall cell growth. […]

[2] = tested on: A549 non-small-cell-lung cancer cell line; assay: Cellular imaging (quantitative videomicroscopy), global growth ratio, A549; type: cell-based; conditions: Homo sapiens, 72 h, read-out: Global Grow Ratio Treated/Ct (GGR T/Ct) determined by Video Quantitative microscopy, A549
Description: as §1
(§4) Investigations have also been performed in human normal fibroblasts (WS1 and WI38—see Tables 4 and 5). Cellular imaging relied on the use of computer-assisted phase-contrast microscopy making possible to film the behaviour of living cells in culture dishes for several days.
(§5) Cells were seeded in a 25-cm^2 flask at a low density, treated or not with the vanilloyl-esters invention (at a concentration of 50 μM) and filmed thereafter for a period of 72 h. The experiment was conducted in quadruplicates (in duplicates for DLT-95 compounds).
(§6) The behaviour of the cells, in terms of morphology, growth and death were thus investigated. The effect on the overall growth was measured by counting the number of cells on the first (0 h) and the last image (72 h) of each film. The global growth ratio (GGR) was then deduced by dividing the number of cells on the last image by the number of cells on the first image. The ratio GGRtreated cells/GGRcontrol cells, was further calculated thereby obtaining a value that describes the effect of compounds of the present invention on the overall cell growth. The methodology is fully described and validated in Debeir et al., 2008, Exp Cell Res 314:2985-2998 and Mathieu et al., 2009, J Cell Mol Med, Feb. 20, 2009.
(§7) Illustrative pictures (time=0 h and 72 h) of glioblastoma and normal fibroblast cell line left untreated or treated with poly-vanillic compounds according to the invention (50 μM) are provided in FIG. 1 (U373 glioblastoma) and FIG. 2 (normal fibroblasts). The GGR parameter analyses confirmed the marked impairment of cell growth in both cancer cell lines of the poly-vanillic compounds according to the invention (Table 5).

[3] = tested on: cancer cell lines; assay: Flow cytometry analyses of pro-autophagic and pro-apoptotic effects; type: cell-based, human; conditions: cancer cell lines studied
Description: (§8) The compounds of the invention were subsequently evaluated for their 1) anti-proliferative effect (by means of the colorimetric MTT assay), 2) pro-autophagic and pro-apoptotic effect (by means of flow cytometry analyses), and 3) anti-migratory effect (by means of quantitative videomicroscopy), in the following human cancer cell-lines: a) U373, T98G and Hs683 glioblastoma cells, b) VM21 and VM48 melanoma cells, c) PC-3 prostate cancer cells, d) MCF-7 breast cancer cells, e) LoVo colon cancer cells, f) OE21 oesophageal cancer cells, and g) A549 NSCLC cancer cells, as well as in human WS1 and WI38 normal fibroblasts (i.e. non-cancer cells).

[4] = tested on: WS1 normal fibroblasts; assay: Cellular imaging (quantitative videomicroscopy), global growth ratio, WS1; type: cell-based, human; conditions: 50 μM, 72 h
Description: as §1, §2, §3

[5] = tested on: U373-MG glioma cell line; assay: Cellular imaging (quantitative videomicroscopy), global growth ratio, U373; type: cell-based; conditions: Homo sapiens, 50 μM, 72 h, read-out: Global Grow Ratio Treated/Ct (GGR T/Ct) determined by Video Quantitative microscopy, U373
Description: as §1, §4, §5, §6, §7

[6] = tested on: cancer cells versus normal fibroblasts; assay: Anti-proliferative, anti-migratory and anti-kinase effects, cancer cells versus normal fibroblasts; type: cell-based, human; conditions: anti-proliferative
Description: as §8
The best current hits, DLT12 and DLT4, display anti-proliferative, anti-migratory effects and anti-kinase effects which are ˜10 times more pronounced in cancer cells than in normal fibroblasts. […] FIG. 1 illustrates the data obtained with respect to the human U373 glioblastoma model, while FIG. 2 illustrates the data obtained in human normal fibroblasts. […] DLT-95 and its derivatives DLT-95-F and DLT-95-Cl were also shown to have a significant effect on the proliferation 7 different human cancer cell-lines.

[7] = tested on: VM21 melanoma cells; assay: MTT colorimetric assay, overall cell growth, VM21; type: cell-based, human; conditions: Homo sapiens; MTT, 72 hours of incubation; read-out: In Vitro IC50 Growth Inhibitory Values, VM21
How it was run: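 Cells were seeded, left 24 h at 37 °C, then exposed to compound at molar concentrations from 10^-8 to 10^-4 M for 72 h at 37 °C, in sestuplicate. Mean OD gave % living cells versus untreated control.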

[8] = molecular target: T1, CDK5/p25 (Homo sapiens, UniProt Q00535); assay: Kinase activity assay, CDK5; type: biochemical; conditions: 10 μM, 1% DMSO, 15 μM ATP; residual activity
T1 construct: made in house
Method: (§9) Buffer A: 10 mM MgCl2, 1 mM EGTA, 1 mM DTT, 25 mM Tris-HCl pH 7.5, 50 μg heparin/ml. Buffer C: 60 mM β-glycerophosphate, 15 mM p-nitrophenylphosphate, 25 mM Mops (pH 7.2), 5 mM EGTA, 15 mM MgCl2, 1 mM DTT, 1 mM sodium vanadate, 1 mM phenyl phosphate.
(§10) Kinase activities were assayed in Buffer A or C, at 30° C., at a final ATP concentration of 15 μM. Blank values were subtracted and activities expressed in % of the maximal activity, i.e. in the absence of inhibitors. Controls were performed with appropriate dilutions of DMSO.
(§11) CDK1/cyclin B (M phase starfish oocytes, native), CDK2/cyclin A, CDK2/cyclin E, CDK5/p25 and CDK7/cyclin H (human, recombinant) were prepared as previously described (Leclerc et al., 2001, J. Biol. Chem. 2001, 276, 251-260; Bach et al., 2005, J Biol Chem 280: 31208-31219). Their kinase activity was assayed in buffer C, with 1 mg histone H1/ml, in the presence of 15 μM [gamma-^33P] ATP (3,000 Ci/mmol; 10 mCi/ml) in a final volume of 30 μl. After 30 min incubation at 30° C., 25 μl aliquots of supernatant were spotted onto 2.5×3 cm pieces of Whatman P81 phosphocellulose paper, and, 20 sec later, the filters were washed five times (for at least 5 min each time) in a solution of 10 ml phosphoric acid/liter of water. The wet filters were counted in the presence of 1 ml ACS (Amersham) scintillation fluid.

[9] = tested on: GSK-3; assay: Kinase activity assay, GSK3; type: biochemical, porcine; conditions: 10 μM, 1% DMSO, 15 μM ATP; residual activity
Method: as §9, §10
GSK-3 (porcine brain, native) was assayed, as described for CDK1 but in Buffer A and using a GSK-3 specific substrate (GS-1: […]pEDEEE) (Seq. ID NO 1) (pS stands for phosphorylated serine) (Primot et al., 2000, Protein Expr. & Purif. 20 (3), 394-404). GS-1 was synthesized by Millegen (Labege, France).

[10] = molecular target: Erk2 (Rattus norvegicus, UniProt P63086); assay: Kinase activity assay, Erk2; type: biochemical; conditions: 10 μM, 1% DMSO, 15 μM ATP; residual activity
Method: as §9, §10
Erk2 (rat, recombinant) was assayed as described for CDK1 but using the specific substrate Ets1 (amino acids 1-138) in buffer A.

[11] = molecular target: pfGSK3 (Plasmodium falciparum, UniProt O77344); assay: Kinase activity assay, pfGSK3; type: biochemical; conditions: 10 μM, 1% DMSO, 15 μM ATP; residual activity
Method: as §9, §10

[12] = tested on: CK1; assay: Kinase activity assay, CK1; type: biochemical, porcine; conditions: 10 μM, 1% DMSO, 15 μM ATP; residual activity
Method: as §9, §10
CK1 (porcine brain, native) was assayed as described for CDK1 but using the CK1-specific peptide substrate […]pSAYSITA (Seq. ID NO 2) (Reinhardt et al., 2007, Protein Expr. & Purif. 54, 101-109), obtained from Millegen (Labege, France).

[13] = tested on: VM48 melanoma cells; assay: MTT colorimetric assay, overall cell growth, VM48; type: cell-based, human; conditions: Homo sapiens; MTT, 72 hours of incubation; read-out: In Vitro IC50 Growth Inhibitory Values, VM48
[14] = molecular target: DYRK1A (Rattus norvegicus, UniProt Q63470); assay: Kinase activity assay, DYRK1A (GST fusion, myelin basic protein substrate); type: biochemical
Method: as §9, §10
DYRK1A (rat, recombinant, expressed in E. coli as a GST fusion protein) was purified by affinity chromatography on glutathione-agarose and assayed as described for CDK1/cyclin B using myelin basic protein (1 mg/ml) as a substrate.

[15] = molecular target: T2, CDK2/cyclin A (Homo sapiens, UniProt P24941); assay: Kinase activity assay, CDK2A; type: biochemical; conditions: 10 μM, 1% DMSO, 15 μM ATP; residual activity
T2 construct: made in house
Method: as §9, §10, §11

T1 sequence (Q00535 whole entry): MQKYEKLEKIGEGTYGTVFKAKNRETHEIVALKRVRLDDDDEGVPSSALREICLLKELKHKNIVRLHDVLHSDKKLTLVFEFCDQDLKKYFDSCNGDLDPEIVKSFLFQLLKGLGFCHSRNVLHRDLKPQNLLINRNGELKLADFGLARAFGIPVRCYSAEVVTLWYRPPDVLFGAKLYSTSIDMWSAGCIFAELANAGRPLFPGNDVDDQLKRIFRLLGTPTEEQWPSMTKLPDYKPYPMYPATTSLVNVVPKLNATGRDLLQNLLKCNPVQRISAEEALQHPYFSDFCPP
T1 sequence (Q15078 99-307 partner limits assumed): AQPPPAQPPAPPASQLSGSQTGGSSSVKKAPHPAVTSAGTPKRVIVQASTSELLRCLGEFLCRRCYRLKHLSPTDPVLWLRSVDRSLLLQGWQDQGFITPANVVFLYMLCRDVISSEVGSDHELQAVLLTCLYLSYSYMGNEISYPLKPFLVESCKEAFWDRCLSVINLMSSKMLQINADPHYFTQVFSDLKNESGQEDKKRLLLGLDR
pfGSK3, sequence (O77344 1-440): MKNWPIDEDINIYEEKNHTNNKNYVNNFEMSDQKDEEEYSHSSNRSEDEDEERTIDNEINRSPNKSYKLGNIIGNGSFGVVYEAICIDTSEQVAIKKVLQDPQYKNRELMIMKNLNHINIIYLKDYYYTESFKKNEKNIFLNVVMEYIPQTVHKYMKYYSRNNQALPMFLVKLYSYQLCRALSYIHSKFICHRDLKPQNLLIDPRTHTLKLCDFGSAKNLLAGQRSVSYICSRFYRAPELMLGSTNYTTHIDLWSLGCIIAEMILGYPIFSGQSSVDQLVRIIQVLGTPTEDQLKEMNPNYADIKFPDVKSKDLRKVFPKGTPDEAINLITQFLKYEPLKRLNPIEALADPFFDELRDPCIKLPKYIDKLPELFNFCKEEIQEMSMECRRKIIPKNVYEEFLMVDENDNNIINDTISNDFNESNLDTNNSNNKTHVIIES
Erk2, sequence (P63086 whole entry): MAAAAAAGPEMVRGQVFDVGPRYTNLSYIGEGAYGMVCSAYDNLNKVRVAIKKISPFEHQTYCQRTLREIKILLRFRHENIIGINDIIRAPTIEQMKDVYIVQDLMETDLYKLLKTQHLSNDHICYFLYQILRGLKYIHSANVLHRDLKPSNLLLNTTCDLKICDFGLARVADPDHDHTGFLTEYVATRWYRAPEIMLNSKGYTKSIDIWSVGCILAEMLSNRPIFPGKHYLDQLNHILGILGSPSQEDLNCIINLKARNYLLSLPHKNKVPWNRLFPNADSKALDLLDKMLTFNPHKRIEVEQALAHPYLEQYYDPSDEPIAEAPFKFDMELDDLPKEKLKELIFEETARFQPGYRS

| SMILES | Global Grow Ratio Treated/Ct (GGR T/Ct) determined by Video Quantitative microscopy, WI38 [1] | activity at 50 µM [2] [%] | pro-autophagic or pro-apoptotic effects [3] | Global Grow Ratio Treated/Ct (GGR T/Ct) determined by Video Quantitative microscopy, WS1 [4] | activity at 50 µM [5] [%] | effects more pronounced in cancer cells than in normal fibroblasts [6] [times] | IC50 [7] [µM] | % ENZYMATIC ACTIVITY, CDK5 [8] [%] | % ENZYMATIC ACTIVITY, GSK3 [9] [%] | % ENZYMATIC ACTIVITY, Erk2 [10] [%] | % ENZYMATIC ACTIVITY, pfGSK3 [11] [%] | % ENZYMATIC ACTIVITY, Ckone [12] [%] | IC50 [13] [µM] | inhibition at 10 µM [14] [%] | % ENZYMATIC ACTIVITY, Dyrk1A ([14]; 10 μM, 1% DMSO, 15 μM ATP, residual activity) [%] | % ENZYMATIC ACTIVITY, CDK2A [15] [%] |
| --- | --- | --- | --- | --- | --- | --- | --- | --- | --- | --- | --- | --- | --- | --- | --- | --- |
| COc1cc(C(=O)O[C@@H]2CCCC[C@H]2OC(=O)c2ccc(O)c(OC)c2)ccc1O (racemic) [DLT4, trans-cyclohexane-1,2-diyl bis-(4-hydroxy-3-methoxybenzoate)] | 0.9 | 20 | does not induce pro-autophagic or pro-apoptotic effects | 1.0 | 20 | ~10 |  |  |  |  |  |  |  |  |  |  |
| COc1cc(C(=O)OC2CCCC(OC(=O)c3ccc(O)c(OC)c3)C2)ccc1O (mixture of isomers) [DLT5, cis/trans-cyclohexane-1,3-diyl bis-(4-hydroxy-3-methoxybenzoate)] |  | 10 |  |  | 20 |  | 47 | 95 | 81 | 92 | 89 | 73 | 47 | 26 | 74 | 100 |
